Measurements from the supplement of paper PMC5579334.

How the values were obtained:
[1] = tested on: HS-PSS; experiment: drug sensitivity score (DSS, CellTox-Green cytotoxicity, 72 h) (DSS (dimensionless)); higher = more cytotoxic; extreme values may be limits of the assay
Procedure, shortened: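 MPNST cell lines and primary human Schwann cells were grown for 72 h at 37 °C in 384-well plates containing five 10-fold compound dilutions. CellTox-Green, added before seeding at a final 1:1000 dilution, gave fluorescence from DNA released by disrupted cells, and signals were scaled to vehicle and positive-control wells. Curves were fitted with a four-parameter logistic model. Drug sensitivity score and relative IC50 come from these fits, with IC50 censored at the top concentration.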

[2] = tested on: HS-Sch-2; experiment: % inhibition of CellTiter-Glo viability at highest tested concentration (72 h), relative to DMSO and benzethonium chloride controls; higher = more inhibition
Procedure, shortened: (§1)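 Viability of MPNST cell lines and primary human Schwann cells was read as CellTiter-Glo ATP luminescence after 72 h at 37 °C, 5% CO2, in 384-well plates seeded with 750–1000 cells per well. Each compound had been preprinted at five concentrations in 10-fold steps. Signals were scaled between vehicle and positive-control wells, duplicates averaged where present, and fitted with four-parameter logistic curves. Drug sensitivity score and relative IC50 (censored at the top concentration) come from those fits, and percent inhibition is taken at the top concentration.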

[3] = tested on: YST-1; experiment: as above
Procedure, shortened: as §1

[4] = tested on: HS-PSS; experiment: as above
Procedure, shortened: as §1

[5] = tested on: HS-Sch-2; experiment: drug sensitivity score (DSS, CellTiter-Glo viability, 72 h) (DSS (dimensionless)); higher = more sensitive; extreme values may be limits of the assay
Procedure, shortened: as §1

[6] = tested on: YST-1; experiment: as above
Procedure, shortened: as §1

[7] = tested on: HS-PSS; experiment: as above
Procedure, shortened: as §1

| Structure (SMILES) | drug sensitivity score [1] | % inhibition [2] | % inhibition [3] | % inhibition [4] | drug sensitivity score [5] | drug sensitivity score [6] | drug sensitivity score [7] |
| --- | --- | --- | --- | --- | --- | --- | --- |
| CC(C)Nc1cc(-c2c[nH]c(C(=O)N[C@H](CO)c3cccc(Cl)c3)c2)c(Cl)cn1 [Ulixertinib] (max concentration tested 10000 nM) | 0 | 68.7% | 41.1% | 53% | 6.76 | 3.93 | 2.52 |
| O=C(O)CC1CC(c2ccccc2)=NO1 (stereo unspecified) [VGX-1027] (max concentration tested 10000 nM) | 0 | 13.4% | 4% | 4.47% | 0.12 | 0 | 0 |
| CCOc1ccn(-c2ccc(F)cc2)c(=O)c1C(=O)Nc1ccc(Oc2ccnc(N)c2Cl)c(F)c1 (max concentration tested 2500 nM) | 0 | 4.22% | 2.08% | 15.6% | 0 | 0 | 1.43 |
| O=C(O)c1ccc(O)c2ncccc12 [IOX-1] (max concentration tested 100000 nM) | 0 | 18.7% | 46% | 1.4% | 0.26 | 2.03 | 0 |
| CNc1ncc2cc(-c3cc(NC(=O)NCCC(C)(C)C)c(F)cc3C)c(C)nc2n1 (max concentration tested 10000 nM) | 0.82 | 55.9% | 46.5% | 69.1% | 10.8 | 6.37 | 3.13 |
| O=C(Nc1cc(Cl)cc2c1[nH]c1cnccc12)c1cccnc1 [PS-1145] (max concentration tested 25000 nM) | 0 | 5.78% | 16.9% | 13.7% | 0 | 3.62 | 0.49 |
| CCN(CC)CCCC(C)Nc1c2ccc(Cl)cc2nc2ccc(OC)cc12 (stereo unspecified) [Mepacrine] (max concentration tested 50000 nM) | 18 | 101% | 101% | 101% | 18.5 | 17.3 | 18.5 |
| O=C(NOCC1CC1)c1ccc(F)c(F)c1Nc1ccc(I)cc1Cl (max concentration tested 10000 nM) | 0 | 55.9% | 24.6% | 21.5% | 5.05 | 1.6 | 0.51 |
| COc1cc(NS(C)(=O)=O)ccc1Nc1c2ccccc2nc2ccccc12 [Amsacrine] (max concentration tested 10000 nM) | 1.27 | 81.6% | 86.6% | 55% | 11.1 | 15.6 | 5.76 |
| Cc1cnc(-c2ccccc2C(C)C)nc1NCc1ccc(-n2ccnn2)cc1 [ML323] (max concentration tested 10000 nM) | 0 | 39.9% | 18.2% | 42% | 3.67 | 0.66 | 3.56 |
| CNC(=O)[C@@H](NC(=O)[C@H](CC(C)C)[C@H](O)C(=O)NO)C(C)(C)C [Marimastat] (max concentration tested 10000 nM) | 0 | 17.1% | 7.56% | -7.14% | 0.33 | 0 | 0 |
| C[C@@H](Oc1cc(-n2cnc3ccc(CN4CCN(C)CC4)cc32)sc1C(N)=O)c1ccccc1C(F)(F)F (max concentration tested 10000 nM) | 5.06 | 99.8% | 86.8% | 101% | 34.6 | 27.3 | 14.6 |
| CC1CCC(n2c3cnccc3c3cnc(Nc4ccc5c(n4)CCN(C(=O)CO)C5)nc32)CC1 (stereo unspecified) [AMG-925] (max concentration tested 1000 nM) | 0 | 12.2% | 6.95% | 9.07% | 0.03 | 0.02 | 0 |
| CN1CC[C@@H](NC(=O)Nc2ccc(C#N)cc2)C[C@@H]1c1nc2ccccc2[nH]1 [Glasdegib] (max concentration tested 1000 nM) | 0 | 20.6% | 1.47% | 21.2% | 1.4 | 0 | 2.26 |
| Cn1cc(-c2cnn3c(N)c(Br)c([C@@H]4CCCNC4)nc23)cn1 [MK-8776] (max concentration tested 2500 nM) | 0 | 72% | 29.6% | 7.73% | 7.06 | 2.03 | 0 |
| CCCC(CCC)C(=O)O [Valproic acid] (max concentration tested 1000000 nM) | 0 | 2.29% | 44.2% | 6.13% | 0 | 2.34 | 0 |
| Cn1cc(-c2ccc3nnc(Sc4ccc5ncccc5c4)n3n2)cn1 [SGX-523] (max concentration tested 5000 nM) | 0 | 5.27% | -2.5% | 2.63% | 0 | 0 | 0 |
| COc1cc2ncnc(Oc3cccc(NC(=O)Nc4cc(C(C)(C)C(F)(F)F)on4)c3)c2cc1OC (max concentration tested 10000 nM) | 0 | -3.7% | 3.62% | 3.34% | 0 | 0.17 | 0 |
